Reference: US20260248767A1, “METHODS FOR INDUCING FERROPTOSIS IN CANCER” (Board of Regents, The University of Texas System, priority 2023, published 2026)
Entries after “also recorded” stand apart in the source; their conditions may differ.

Assays:
HT-1080 cells [1] = test: Cell death assay (PI flow cytometry), HT-1080 cells incl. knockout lines; conditions: for cell death in SHMT2 knockout cells: ferroptosis inducer in SHMT2 knockout cells; for cell death in combination with RSL3: combined with RSL3, compared to RSL3 alone; for cell death in combination with FIN56: combined with ferroptosis inducer FIN56; for cell death in combination with ML-162: combined with ferroptosis inducer ML-162; for cell death over various concentrations of RSL3: combined with various concentrations of RSL3; for cell death in MTHFD2 knockout cells: ferroptosis inducer in MTHFD2 knockout HT-1080 cells; for rescue of RSL3 plus sulfite induced cell death or decrease in cell viability: cell death inhibitors added to RSL3 plus sulfite; for cell death in combination with JKE-1674: combined with ferroptosis inducer JKE-1674 (JKE)
Description: Initially, the effect of sulfite on ferroptosis was studied. […] Each group was treated with vehicle alone or with sulfite.
The knockout cells were identified by immunoblotting.
Briefly, cells were seeded in 12-well plates and incubated overnight. After treatment, cells were trypsinized and collected. After washing with cold phosphate-buffered saline (PBS), the cells were stained with 2 μg/mL propidium iodide (PI) in cold PBS. […] All experiments were performed in triplicates.

HT-1080 cells [2] = test: Lipid peroxidation measurement (C11-BODIPY 581/591, flow cytometry); format: cell-based, human; conditions: for relative lipid peroxidation level in combination with RSL3: combined with RSL3, compared to RSL3 alone
Description: Cells were seeded on 12-well plates and incubated overnight. After treating with compounds for indicated time, cells were incubated in media containing 5 μM C11-BODIPY 581/591 (Invitrogen) for 30 min at 37° C. Then cells were trypsinized and collected. […] All experiments were performed in triplicates.

HT-1080 cells [3] = test: Relative mitochondrial lipid peroxidation level; format: cell-based, human; conditions: for relative mitochondrial lipid peroxidation level in combination with RSL3: combined with RSL3, compared to RSL3 alone
[4] = system: HT-1080, 786-O, U87, T98G, RCC4, H1299, A549, Hela and Hs578T; test: Cell death assay (PI flow cytometry), panel of cancer cell lines; format: cell-based, human; conditions: for enhancement of ferroptosis induced by RSL3: panel of cell lines tested
Description: All cell lines used in this study were free of mycoplasma contamination (per testing done by the vendor). All the cells were cultured in a 37° C. incubator in a 5% CO2 atmosphere. H1299 cells were cultured in RPMI-1640 medium supplemented with 10% fetal bovine serum and 10,000 U/mL penicillin-streptomycin. HT-1080, 786-O, U87, T98G, RCC4, A549, Hela and Hs578T cells were cultured in Dulbecco modified Eagle medium (DMEM) supplemented with 10% fetal bovine serum and 10,000 U/mL of penicillin-streptomycin.
After treatment, cells were trypsinized and collected. […] All experiments were performed in triplicates.

NADP+/NADPH = test: NADP+ and NADPH measurement; format: cell-based; conditions: treated vs untreated cells
HT-1080 cells [5] = test: Cell viability assay (CCK-8); format: cell-based, human
Description: Cell viability was measured using a Cell Counting Kit-8 (CCK-8, Dojindo) as previously described (Koppula, P., et al. J Biol Chem 292, 14240-14249, doi: 10.1074/jbc.M117.798405 (2017); Liu, X. et al. Nat Cell Biol 18, 431-442, doi: 10.1038/ncb3328 (2016)). In brief, cells were seeded onto 96-well plates at a density of 1×10^4 per well. The next day, cells were treated with indicated compound for 16-20 h. Subsequently, cells were changed to new 100 μl medium containing 10 μl CCK-8 reagent for 1 h at 37° C., 5% CO2 in incubator. The absorbance at 450 nm was determined using a FLUOstar Omega microplate reader (BMG Labtech).

[6] = system: HT-1080-derived xenografts; test: HT-1080-derived xenograft in nude mice; format: in vivo; conditions: for growth of HT-1080-derived xenografts (tumor volume): nude mice
Text: To assess the in vivo impact of the combination of SHMT inhibition and GPX4 inhibition, the SHMT inhibitor sertraline was utilized, an FDA-approved drug, and the GPX4 inhibitor JKE-1674 for both in vitro and in vivo cell treatments. The data reveal that both SHIN2 and sertraline sensitize cancer cells to JKE-1674-induced ferroptosis (FIG. 11A-11B). […] Additionally, liproxstain-1 reversed the 4-HNE staining score back to levels similar to the vehicle control (FIG. 11F-I).

LKR-13 tumor = LKR-13 tumor growth in 129/Sv mouse model; format: in vivo
Text: The assessment of ferroptosis function on the growth of either cell-derived or patient-derived xenografts is typically conducted in immunodeficient mice, such as nude mice or NSG mice. However, for applications in clinical settings, it becomes important to evaluate ferroptosis function in immunocompetent mice. To gain a more comprehensive understanding of the role of SHMT2 inhibition in combination with ferroptosis in cancer treatment, the investigations were extended to LKR13, a mouse cell line, both in vitro and in vivo. Initially, it was confirmed that sertraline promotes JKE-1674-induced ferroptosis in vitro (FIG. 11J-11K). Subsequently, the effects of sertraline, JKE-1674, and their combination were examined on a LKR-13 tumor growth in a 129/Sv mouse model.

LKR13, a mouse cell line = test: Cell death of LKR-13 cells in vitro; format: cell-based; conditions: 24 hrs
Description: Cell death was measured and analyzed using flow cytometry as described previously (Zhang, Y., et al. Cell Cycle 18, 773-783, doi: 10.1080/15384101.2019.1597506 (2019); Koppula, P. et al. Nature communications 13, 2206, doi: 10.1038/s41467-022-29905-1 (2022)). Briefly, cells were seeded in 12-well plates and incubated overnight. After treatment, cells were trypsinized and collected. After washing with cold phosphate-buffered saline (PBS), the cells were stained with 2 μg/mL propidium iodide (PI) in cold PBS. The fraction of dead cells (PI-positive cells) was measured using a Attune Flow Cytometer (ThermoFisher) and analyzed by FlowJo 10 software (Lin, A. et al. Oncogene 33, 3183-3194, doi: 10.1038/one.2013.273 (2014); Liu, X. & Gan, B. et al. Cell Cycle 15, 3471-3481, doi: 10.1080/15384101.2016.1249545 (2016)). All experiments were performed in triplicates.

[7] = RSL3 treated SUOX knockout cells
[8] = HT-1080 tumors, immunochemistry

O=S(=O)(NC1CCCCC1)c1ccc2c(c1)C(=NO)c1cc(S(=O)(=O)NC3CCCCC3)ccc1-2 [FIN56]
cell death in SHMT2 knockout cells (HT-1080 cells [1]): induced cell death and or decrease viability

Nc1nc2ccn(CCCCc3ccc(C(=O)N[C@@H](CCC(=O)O)C(=O)O)c(F)c3)c2c(=O)[nH]1 [AGF347]
relative lipid peroxidation level in combination with RSL3 (HT-1080 cells [2]): increased lipid peroxidation levels; also recorded: increase lipid peroxidation | relative mitochondrial lipid peroxidation level in combination with RSL3 (HT-1080 cells [3]): increased relative mitochondrial lipid peroxidation level; also recorded: increase mitochondrial lipid peroxidation | cell death in combination with RSL3 (HT-1080 cells [1]): increase cell death | cell death in combination with FIN56 (HT-1080 cells [1]): also observed; also recorded: increase cell death | cell death in combination with ML-162 (HT-1080 cells [1]): also observed; also recorded: increase cell death | cell death over various concentrations of RSL3 (HT-1080 cells [1]): enhance cell death

O=S(O)(O)=S [thiosulfate, Sodium Thiosulfate]
cell death as observed visually (HT-1080 cells [1]; 0.5 mM, cancer cells, presence or absence of RSL3): to a very small extent | cell death in combination with RSL3 (HT-1080 cells [1]): significantly more than the cell death observed with vehicle control upon treatment with RSL3, but less than the cell death observed with sulfite

Cc1n[nH]c2c1[C@](c1cc(CO)cc(-c3ccccc3)c1)(C(C)C)C(C#N)=C(N)O2 [SHIN1]
enhancement of ferroptosis induced by RSL3 [4]: enhance ferroptosis | relative lipid peroxidation level in combination with RSL3 (HT-1080 cells [2]): increased lipid peroxidation levels; also recorded: increase lipid peroxidation | relative mitochondrial lipid peroxidation level in combination with RSL3 (HT-1080 cells [3]): increased relative mitochondrial lipid peroxidation level; also recorded: increase mitochondrial lipid peroxidation | NADP+/NADPH ratio (NADP+/NADPH): higher | cell death in combination with RSL3 (HT-1080 cells [1]): increase cell death | cell death in combination with FIN56 (HT-1080 cells [1]): also observed; also recorded: increase cell death | cell death in combination with ML-162 (HT-1080 cells [1]): also observed; also recorded: increase cell death | cell death over various concentrations of RSL3 (HT-1080 cells [1]): enhance cell death

O=S(=O)([O-])[O-].[Na+].[Na+] [Sulfate, Sodium sulfate]
cell death in combination with RSL3 (HT-1080 cells [1]): did not synergistically increase

COC(=O)c1ccc([C@H]2c3[nH]c4ccccc4c3C[C@H](C(=O)OC)N2C(=O)CCl)cc1 [RSL3]
cell viability in SHMT2 knockout cells (HT-1080 cells [5]; varying concentrations of RSL3, SHMT2 knockout): reduced | relative lipid peroxidation level % in SUOX knockout cells (HT-1080 cells [2]; [7]): mirrored | lipid peroxidation level in SHMT2 knock out cells (HT-1080 cells [2]; upon RSL3 treatment): increased lipid peroxidation level | relative mitochondrial lipid peroxidation level % in SUOX knockout cells (HT-1080 cells [3]; [7]): mirrored | mitochondrial lipid peroxidation level in SHMT2 knock out cells (HT-1080 cells [3]; upon RSL3 treatment): increased mitochondrial lipid peroxidation level | cell death in SUOX knockout cells vs sg control cells (HT-1080 cells [1]; SUOX knockout HT-1080 cells): Greater cell death | cell death in MTHFD2 knockout cells (HT-1080 cells [1]): significantly increase | cell death in SHMT2 knockout cells (HT-1080 cells [1]): increased

Clc1cccc(CN=C2Nc3ccccc3NC23CCNCC3)c1 [liproxstain-1, Liproxstatin-1]
4-HNE staining score when added to JKE-1674+sertraline ([6]; HT-1080 tumors, JKE-1674+sertraline+Lip-1): reversed | rescue of RSL3 plus sulfite induced cell death or decrease in cell viability (HT-1080 cells [1]): rescued

CN[C@H]1CC[C@@H](c2ccc(Cl)c(Cl)c2)c2ccccc21 [sertraline]
relative lipid peroxidation level in combination with RSL3 (HT-1080 cells [2]): significantly increase | relative mitochondrial lipid peroxidation level in combination with RSL3 (HT-1080 cells [3]): significantly increase | staining for Ki-67 in tumors [6, 8]: did not alter staining | staining for cleaved caspase-3 in tumors [6, 8]: did not alter staining | growth of HT-1080-derived xenografts (tumor volume) [6]: no discernible effect | LKR13 tumor graft growth (LKR-13 tumor): did not impact | JKE-1674-induced ferroptosis in vitro (LKR13, a mouse cell line): promotes | cell death in combination with RSL3 (HT-1080 cells [1]): significantly increase | cell death in combination with JKE-1674 (HT-1080 cells [1]): enhance cell death; also recorded: sensitize | cell death in combination with ML-162 (HT-1080 cells [1]): significantly enhance | cell death over various concentrations of RSL3 (HT-1080 cells [1]): enhance cell death

NC(=O)c1ccc(N)nc1 [6-AN, 6-Aminonicotinamide]
cell death in combination with RSL3 (HT-1080 cells [1]): enhanced the cell death | cell death induced by the agent on its own (HT-1080 cells [1]; without RSL3): did not induce cell death on its own

Cc1n[nH]c2c1[C@](c1cc(C#CCCCO)cc(CO)c1)(C(C)C)C(C#N)=C(N)O2 [SHIN2]
enhancement of ferroptosis induced by RSL3 [4]: enhance ferroptosis | relative lipid peroxidation level in combination with RSL3 (HT-1080 cells [2]): increased lipid peroxidation levels; also recorded: increase lipid peroxidation | relative mitochondrial lipid peroxidation level in combination with RSL3 (HT-1080 cells [3]): increased relative mitochondrial lipid peroxidation level; also recorded: increase mitochondrial lipid peroxidation | NADP+/NADPH ratio (NADP+/NADPH): higher | cell death in combination with RSL3 (HT-1080 cells [1]): increase cell death | cell death in combination with FIN56 (HT-1080 cells [1]): also observed; also recorded: increase cell death | cell death in combination with JKE-1674 (HT-1080 cells [1]): enhance cell death; also recorded: sensitize | cell death in combination with ML-162 (HT-1080 cells [1]): also observed; also recorded: increase cell death | cell death over various concentrations of RSL3 (HT-1080 cells [1]): enhance cell death

CCOC(=O)c1ccc(NC2CCCCC2)c(N)c1 [Fer-1, Ferrostatin-1]
rescue of ferroptosis induced by the combination of RSL3 and sulfite ([4]; Fer-1 5 μm): could be rescued | rescue of the impact of SUOX knockout on RSL3 cell death (HT-1080 cells [1]; Fer-1 and RSL3, SUOX knockout HT-1080 cells): rescued | cell death of RSL3 and 6-AN combination when combined with Ferr-1 (HT-1080 cells [1]; RSL3 + 6-AN + Ferr-1): did not induce cell death | SHMT2 knockout increase of RSL3 mediated cell death when combined with Fer-1 (HT-1080 cells [1]; RSL3 + Fer-1, SHMT2 knockout cells): not observed | rescue of RSL3 plus sulfite induced cell death or decrease in cell viability (HT-1080 cells [1]): rescued

N[C@@H](CSS(=O)(=O)O)C(=O)O [S-sulfocysteine]
cell viability when combined with different concentrations of RSL3 (HT-1080 cells [5]; combined with RSL3, range of concentrations): sensitized | relative lipid peroxidation level in combination with FIN56 (HT-1080 cells [2]; combined with FIN56): increased | relative lipid peroxidation level in combination with RSL3 (HT-1080 cells [2]): increased | cell death in combination with RSL3 (HT-1080 cells [1]): sensitized | cell death in combination with FIN56 (HT-1080 cells [1]): sensitized | cell death in combination with JKE-1674 (HT-1080 cells [1]): sensitized | cell death in combination with ML-162 (HT-1080 cells [1]): sensitized | cell death in combination with ML-210 (HT-1080 cells [1]; combined with ferroptosis inducer ML-210): sensitized

COc1ccc(N(C(=O)CCl)C(C(=O)NCCc2ccccc2)c2cccs2)cc1Cl (stereo not drawn) [ML-162]
cell death in MTHFD2 knockout cells (HT-1080 cells [1]): significantly increase | cell death in SHMT2 knockout cells (HT-1080 cells [1]): induced cell death and or decrease viability

O=C(/C(C[N+](=O)[O-])=N/O)N1CCN(C(c2ccc(Cl)cc2)c2ccc(Cl)cc2)CC1 [JKE-1674]
growth of HT-1080-derived xenografts (tumor volume) [6]: no discernible effect | LKR13 tumor graft growth (LKR-13 tumor): did not impact | cell death in MTHFD2 knockout cells (HT-1080 cells [1]): significantly increase | cell death in SHMT2 knockout cells (HT-1080 cells [1]): induced cell death and or decrease viability
